Values of other authors in US20030220416A1, “Curable compositions with antimicrobial properties” (priority 1998, published 2003).
Where two headings read alike, the source gives them in different places.

Tests used:
[1] = most of the compositions tested
S. mutans = conditions: MDPB incorporated in experimental composites
bacteria = conditions: MDPB incorporated in experimental composites

Structure (SMILES) | release of the triclosan into the surrounding medium [1] [micrograms/ml] | water solubility (distilled water at 20° C.) [ppm] | water solubility (distilled water at 50° C.) [ppm] | attachment of S. mutans to surfaces of the restorative material (S. mutans) | zone of inhibition by the disk diffusion method (bacteria)
Oc1cc(Cl)ccc1Oc1ccc(Cl)cc1Cl [Triclosan, 2,4,4′-trichloro-2′hydroxydiphenyl ether] | 0.02 | 20 | 20 |  | 
C=C(C)C(=O)OCCCCCCCCCCCC[n+]1ccccc1.[Br-] [MDPB, methacryloyloxydodecylpyridinium bromide] |  |  |  | reduced | no zone of inhibition was evident
